We go through 37 molecules from patent US10703765B2 (priority 2014, dated 2020).

Structures can show the parent of a compound that is named as a salt.

The target of the first assay is human σ1 receptor (Homo sapiens, UniProt Q99720). Briefly: biochemical. The assay is classed as binding. Further details: μ and σ1 dual binding: key to the marks not given beside the values.
human σ1 receptor, sequence (Q99720 whole entry): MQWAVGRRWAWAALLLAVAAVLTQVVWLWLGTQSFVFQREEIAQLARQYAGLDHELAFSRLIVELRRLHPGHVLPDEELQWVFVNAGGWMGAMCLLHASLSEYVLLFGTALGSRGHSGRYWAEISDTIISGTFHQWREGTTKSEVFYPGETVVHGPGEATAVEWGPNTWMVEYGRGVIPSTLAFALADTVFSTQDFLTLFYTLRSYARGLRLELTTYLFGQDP
Details: not given
Regarding `CC1CN(CCc2cccnc2)CC2(CCN(CCc3ccccc3)CC2)O1` (stereo not shown) [Example 331, 2-methyl-9-phenethyl-4-(2-(pyridin-3-yl)ethyl)-1-oxa-4,9-diazaspiro[5.5]undecane hydrochloride], the “μ and σ1 dual binding” value is on record as “++”.

In turn, `CC1OC2(CCN(CCn3ccc4ccccc43)CC2)CN(c2ccccc2)C1=O` (stereo not shown) [Example 62, 9-(2-(1H-indol-1-yl)ethyl)-2-methyl-4-phenyl-1-oxa-4,9-diazaspiro[5.5]undecan-3-one hydrochloride] came in with a Ki of under 100 nM.

Molecule `CC1OC2(CCN(CCc3ccccc3)CC2)CN(Cc2ccn(C)n2)C1=O` (stereo not shown) [Example 171, 2-methyl-4-((1-methyl-1H-pyrazol-3-yl)methyl)-9-phenethyl-1-oxa-4,9-diazaspiro[5.5]undecan-3-one] had a Ki of under 500 nM.

The molecule `C[C@H]1OC2(CCN(C[C@H](O)c3ccccc3)CC2)CN(c2ccccc2)C1=O` [Example 151a, (R)-9-((R)-2-hydroxy-2-phenylethyl)-2-methyl-4-phenyl-1-oxa-4,9-diazaspiro[5.5]undecan-3-one] came in with a Ki of under 500 nM.

Regarding `CC1OC2(CCN(CCc3cncc(Cl)c3)CC2)CN(c2ccccc2)C1=O` (stereo not shown) [Example 115, 9-(2-(5-chloropyridin-3-yl)ethyl)-2-methyl-4-phenyl-1-oxa-4,9-diazaspiro[5.5]undecan-3-one hydrochloride], the Ki is under 500 nM.

Consider `COc1cccc(N2CCOC3(CCN(CCc4ccccc4)CC3)C2)c1.Cl` [Example 333, 4-(3-methoxyphenyl)-9-phenethyl-1-oxa-4,9-diazaspiro[5.5]undecane hydrochloride], for which the “μ and σ1 dual binding” value is on record as “++”.

Molecule `COc1cccc(CCN2CCC3(CC2)CN(c2ccccc2F)C(=O)C(C)O3)c1` (stereo not shown) [Example 83, 4-(2-fluorophenyl)-9-(3-methoxyphenethyl)-2-methyl-1-oxa-4,9-diazaspiro[5.5]undecan-3-one hydrochloride] came in with a Ki of under 100 nM.

On to `c1ccc(CCN2CCC3(CC2)CN(CCc2ccccc2)CCO3)cc1` [Example 337, 4,9-diphenethyl-1-oxa-4,9-diazaspiro[5.5]undecane dihydrochloride], for which the “μ and σ1 dual binding” value is recorded as “++”.

On to `CC1OC2(CCN(CCc3ccccc3)CC2)CN(c2ccccc2O)C1=O` (stereo not shown) [Example 296, 4-(2-hydroxyphenyl)-2-methyl-9-phenethyl-1-oxa-4,9-diazaspiro[5.5]undecan-3-one], for which the “μ and σ1 dual binding” value is listed as “++”.

Molecule `CC1OC2(CCN(CCc3cccc(NC(N)=O)n3)CC2)CN(c2ccccc2)C1=O` (stereo not shown) [Example 264, 1-(6-(2-(2-methyl-3-oxo-4-phenyl-1-oxa-4,9-diazaspiro[5.5]undecan-9-yl)ethyl)pyridin-2-yl)urea] came in with a Ki of under 500 nM.

In the case of `CC(=O)Nc1ccc(CCN2CCC3(CC2)CN(c2ccccc2)C(=O)C(C)O3)cc1.Cl` (stereo not shown) [Example 241, N-(4-(2-(2-methyl-3-oxo-4-phenyl-1-oxa-4,9-diazaspiro[5.5]undecan-9-yl)ethyl)phenyl)acetamide hydrochloride], the “μ and σ1 dual binding” value is listed as “++”.

Turning to `CC(C)CCN1CCC2(CC1)CN(c1ccccc1F)C(=O)C(C)O2.Cl` (stereo not shown) [Example 81, 4-(2-fluorophenyl)-9-isopentyl-2-methyl-1-oxa-4,9-diazaspiro[5.5]undecan-3-one hydrochloride], the “μ and σ1 dual binding” value is reported as “++”.

The assay is the same for the next values; noted with them: combined class from Ki-σ1 (human σ1 receptor, A1) and Ki-μ (human μ-opioid receptor, A2) radioligand binding.
Take `COc1ccc(CCN2CCC3(CC2)CN(c2ccccc2)C(=O)CO3)cc1` [Example 52, 9-(4-methoxyphenethyl)-4-phenyl-1-oxa-4,9-diazaspiro[5.5]undecan-3-one]: the “μ and σ1 dual binding” value is recorded as “++”.

For the molecule `O=C1COC2(CCN(Cc3ccccc3)CC2)CN1c1ccccc1O` [Example 285, 9-benzyl-4-(2-hydroxyphenyl)-1-oxa-4,9-diazaspiro[5.5]undecan-3-one], the “μ and σ1 dual binding” value is given as “++”.

For the molecule `Oc1ccc(CCN2CCC3(CC2)CN(c2ccccc2)CCO3)cc1` [Example 292, 4-(2-(4-phenyl-1-oxa-4,9-diazaspiro[5.5]undecan-9-yl)ethyl)phenol], the “μ and σ1 dual binding” value was “++”.

Still in this assay, the particulars now being: read-out: μ and σ1 dual binding.
As to `O=C1COC2(CCN(CCc3ccccc3)CC2)CN1Cc1cccc([N+](=O)[O-])c1` [Example 179, 4-(3-nitrobenzyl)-9-phenethyl-1-oxa-4,9-diazaspiro[5.5]undecan-3-one], the Ki is over 500 nM.

As for `O=C1COC2(CCN(CCc3ccccc3)CC2)CN1Cc1ncc[nH]1` [Example 284, 4-((1H-imidazol-2-yl)methyl)-9-phenethyl-1-oxa-4,9-diazaspiro[5.5]undecan-3-one hydrochloride], the Ki was over 500 nM.

As to `O=C1CO[C@@]2(CCN(Cc3ccccc3)C2)CN1c1ccccc1` [Example 349, (R)-2-benzyl-9-phenyl-6-oxa-2,9-diazaspiro[4.5]decan-8-one], the Ki was over 500 nM.

As to `CC1OC2(CCN(CCN3CCCC3=O)CC2)CN(c2ccccc2)C1=O` (stereo not shown) [Example 146, 2-methyl-9-(2-(2-oxopyrrolidin-1-yl)ethyl)-4-phenyl-1-oxa-4,9-diazaspiro[5.5]undecan-3-one], the Ki is over 500 nM.

On to `c1ccc(CCN2CCC3(CC2)CN(Cc2ccccn2)CCO3)cc1` [Example 336, 9-phenethyl-4-(pyridin-2-ylmethyl)-1-oxa-4,9-diazaspiro[5.5]undecane dihydrochloride], for which the Ki is under 100 nM.

As to `O=C1COC2(CCN(CCc3ccccc3)CC2)CN1c1cccc(O)c1` [Example 288, 4-(3-hydroxyphenyl)-9-phenethyl-1-oxa-4,9-diazaspiro[5.5]undecan-3-one], the Ki is under 500 nM.

Consider `CC1OC2(CCN(CCc3ccccc3)CC2)CN(c2cnccn2)C1=O` (stereo not shown) [Example 195, 2-methyl-9-phenethyl-4-(pyrazin-2-yl)-1-oxa-4,9-diazaspiro[5.5]undecan-3-one hydrochloride], for which the Ki was under 500 nM.

As for `CC1OC2(CCN(CCc3cccc(N)c3)CC2)CN(c2ccccc2)C1=O` (stereo not shown) [Example 226, 9-(3-aminophenethyl)-2-methyl-4-phenyl-1-oxa-4,9-diazaspiro[5.5]undecan-3-one], the Ki is under 100 nM.

For the molecule `CC1OC2(CCN(CCc3ccccc3)CC2)CN(c2ccc(C(F)(F)F)nc2)C1=O` (stereo not shown) [Example 212, 2-methyl-9-phenethyl-4-(6-(trifluoromethyl)pyridin-3-yl)-1-oxa-4,9-diazaspiro[5.5]undecan-3-one hydrochloride], the Ki was over 500 nM.

Regarding `COC[C@@H]1OC2(CCN(CCc3ccccc3)CC2)CN(c2ccccc2)C1=O` [Example 12a, (S)-2-(methoxymethyl)-9-phenethyl-4-phenyl-1-oxa-4,9-diazaspiro[5.5]undecan-3-one], the Ki is under 500 nM.

For the molecule `O=C1COC2(CCN(CC(O)c3ccccc3)CC2)CN1Cc1ccc(C(F)(F)F)cn1` (stereo not shown) [Example 278, 9-(2-hydroxy-2-phenylethyl)-4-((5-(trifluoromethyl)pyridin-2-yl)methyl)-1-oxa-4,9-diazaspiro[5.5]undecan-3-one], the Ki is under 500 nM.

Consider `CC1OC2(CCN(CCc3cccc(N)n3)CC2)CN(c2cnccc2C(F)(F)F)C1=O` (stereo not shown) [Example 42, 9-(2-(6-aminopyridin-2-yl)ethyl)-2-methyl-4-(4-(trifluoromethyl)pyridin-3-yl)-1-oxa-4,9-diazaspiro[5.5]undecan-3-one hydrochloride], for which the Ki was over 500 nM.

Take `CC1OC2(CCN(CCc3ccccc3)CC2)CN(c2cccc(C(=O)O)c2)C1=O` (stereo not shown) [Example 268, 3-(2-methyl-3-oxo-9-phenethyl-1-oxa-4,9-diazaspiro[5.5]undecan-4-yl)benzoic acid]: the Ki is over 500 nM.

Regarding `CC1OC2(CCN(CC3CC3)CC2)CN(c2ccccc2F)C1=O` (stereo not shown) [Example 82, 9-(cyclopropylmethyl)-4-(2-fluorophenyl)-2-methyl-1-oxa-4,9-diazaspiro[5.5]undecan-3-one hydrochloride], the Ki is over 500 nM.

Consider `CC1OC2(CCN(CCc3cccnc3[N+](=O)[O-])CC2)CN(c2ccccc2)C1=O` (stereo not shown) [Example 27, 2-methyl-9-(2-(2-nitropyridin-3-yl)ethyl)-4-phenyl-1-oxa-4,9-diazaspiro[5.5]undecan-3-one], for which the Ki was over 500 nM.

`CC1OC2(CCN(CCc3cc(N)ccn3)CC2)CN(c2ccccc2)C1=O` (stereo not shown) [Example 30, 9-(2-(4-aminopyridin-2-yl)ethyl)-2-methyl-4-phenyl-1-oxa-4,9-diazaspiro[5.5]undecan-3-one hydrochloride]: the Ki was over 500 nM.

`CC1OC2(CCN(CCc3ccccc3)CC2)CN(c2cncc(C(F)(F)F)c2)C1=O` (stereo not shown) [Example 217, 2-methyl-9-phenethyl-4-(5-(trifluoromethyl)pyridin-3-yl)-1-oxa-4,9-diazaspiro[5.5]undecan-3-one hydrochloride]: the Ki is under 500 nM.

As to `CC1OC2(CCN(CCc3ccccc3[N+](=O)[O-])CC2)CN(c2ccccc2)C1=O` (stereo not shown) [Example 68, 2-methyl-9-(2-nitrophenethyl)-4-phenyl-1-oxa-4,9-diazapspiro[5.5]undecan-3-one], the Ki is over 500 nM.

On to `CC1OC2(CCN(CCc3csc(N)n3)CC2)CN(c2cnccc2C(F)(F)F)C1=O` (stereo not shown) [Example 309, 9-(2-(2-aminothiazol-4-yl)ethyl)-2-methyl-4-(4-(trifluoromethyl)pyridin-3-yl)-1-oxa-4,9-diazaspiro[5.5]undecan-3-one], for which the Ki is over 500 nM.

In the case of `C[C@H]1OC2(CCN(CCc3ccccc3F)CC2)CN(c2cnccc2C(F)(F)F)C1=O` [Example 127b, (R)-9-(2-fluorophenethyl)-2-methyl-4-(4-(trifluoromethyl)pyridin-3-yl)-1-oxa-4,9-diazaspiro[5.5]undecan-3-one hydrochloride], the Ki is under 100 nM.

Regarding `CC(=O)Nc1cccc(CCN2CCC3(CC2)CN(Cc2ccccc2)CCO3)c1` [Example 339, N-(3-(2-(4-benzyl-1-oxa-4,9-diazaspiro[5.5]undecan-9-yl)ethyl)phenyl)acetamide], the Ki was under 100 nM.

As for `CC1OC2(CCN(CCc3ccccc3)CC2)CN(CC(=O)N2CCOCC2)C1=O` (stereo not shown) [Example 170, 2-methyl-4-(2-morpholino-2-oxoethyl)-9-phenethyl-1-oxa-4,9-diazaspiro[5.5]undecan-3-one hydrochloride], the Ki was over 500 nM.
